Test results: PubChem BioAssay (NCI)
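A five-concentration, 48-hour dose response in 96-well plates underlies each endpoint, interpolated linearly between surrounding concentrations. The concentration for full growth arrest is given as TGI.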

What was measured:
Assay in all cases: inhibition of tumour cell growth, NCI panel, 48 h
ACHN renal = tested on: ACHN renal
DU-145 prostate = tested on: DU-145 prostate
EKVX NSCLC = tested on: EKVX NSCLC
HCT-15 colon = tested on: HCT-15 colon
KM12 colon = tested on: KM12 colon
NCI-H226 lung = tested on: NCI-H226 lung
OVCAR-3 ovarian = tested on: OVCAR-3 ovarian
PC-3 prostate = tested on: PC-3 prostate
RXF 393 renal = tested on: RXF 393 renal
SK-MEL-28 melanoma = tested on: SK-MEL-28 melanoma
SK-OV-3 ovarian = tested on: SK-OV-3 ovarian
SNB-19 CNS = tested on: SNB-19 CNS
SR leukemia = tested on: SR leukemia
U251 CNS = tested on: U251 CNS
UACC-257 melanoma = tested on: UACC-257 melanoma
UACC-62 melanoma = tested on: UACC-62 melanoma
MDA-MB-435 = tested on: MDA-MB-435
NCI-H460 lung = tested on: NCI-H460 lung
BT-549 breast = tested on: BT-549 breast

Row | Compound | TGI (ACHN renal) [µM] | TGI (DU-145 prostate) [µM] | TGI (EKVX NSCLC) [µM] | TGI (HCT-15 colon) [µM] | TGI (KM12 colon) [µM] | TGI (NCI-H226 lung) [µM] | TGI (OVCAR-3 ovarian) [µM] | TGI (PC-3 prostate) [µM] | TGI (RXF 393 renal) [µM] | TGI (SK-MEL-28 melanoma) [µM] | TGI (SK-OV-3 ovarian) [µM] | TGI (SNB-19 CNS) [µM] | TGI (SR leukemia) [µM] | TGI (U251 CNS) [µM] | TGI (UACC-257 melanoma) [µM] | TGI (UACC-62 melanoma) [µM] | TGI (MDA-MB-435) [µM] | TGI (NCI-H460 lung) [µM] | TGI (BT-549 breast) [µM]
1 | CNC(=O)N1CN(c2ccccc2)C2(CCN(Cc3ccccc3)CC2)C1=O | > 100 | > 100 | > 100 | > 100 | > 100 | > 100 | > 100 | > 100 | > 100 | > 100 | > 100 | > 100 | 52.3 | > 100 | > 100 | > 100 |  |  | 
2 | CCOC(=O)C(NC(=O)c1cccc(Cl)c1)(Nc1ccc(S(=O)(=O)Nc2cc(C)nc(C)n2)cc1)C(F)(F)F (stereo unspecified) | > 100 | > 100 | > 100 | > 100 | > 100 | > 100 | > 100 | > 100 |  | > 100 | > 100 | > 100 | > 100 | > 100 | > 100 |  | > 100 | > 100 | 
3 | COc1ccc(-c2cc(=O)c3cc(Cl)ccc3[nH]2)cc1 | > 100 |  | > 100 |  | > 100 | > 100 | > 100 |  | > 100 | > 100 | > 100 | > 100 | > 100 |  | > 100 | > 100 |  | > 100 | 
4 | CC(C)(C)OC(=O)NCCC1CNc2ccccc21 (stereo unspecified) | > 100 | > 100 | > 100 | > 100 | > 100 |  | > 100 | > 100 | > 100 | > 100 | > 100 | > 100 |  | > 100 | > 100 | > 100 | > 100 | > 100 | > 100
5 | O=C1CCC2(CC1CCS(=O)c1ccccc1)OCCO2 (stereo unspecified) | > 100 | > 100 | > 100 | > 100 | > 100 | > 100 | > 100 | > 100 | > 100 | > 100 | > 100 | > 100 | > 100 | > 100 | > 100 | > 100 | > 100 | > 100 | 
6 | CCOP(=O)(Nc1ccc(-c2ccc(N)cc2)cc1)OCC | > 100 | > 100 | > 100 | > 100 | > 100 |  | > 100 | > 100 | 98.8 | > 100 | > 100 | > 100 |  | > 100 | > 100 | > 100 | > 100 | > 100 | > 100
7 | N#Cc1ccccc1NC(=O)C(=O)C(C(=O)c1ccncc1)C1OC(=O)c2ccccc21 (stereo unspecified) | > 100 |  | > 100 | > 100 | > 100 | > 100 | > 100 |  | > 100 | > 100 | > 100 | > 100 | > 100 | > 100 | > 100 | > 100 |  | > 100 | 
8 | CN/N=C(\C(=O)Nc1ccc(C(F)(F)F)cc1[N+](=O)[O-])C(c1cnc2ccc([N+](=O)[O-])cc2n1)[N+](=O)[O-] (stereo unspecified) | > 100 |  | 65.9 | > 100 | > 100 | 78.5 | > 100 |  | > 100 | > 100 | > 100 | > 100 | > 100 | > 100 | > 100 |  |  | > 100 | 
9 | N#Cc1sc2c(c1OC(=O)c1ccc(Cl)cc1Cl)c(=O)n(-c1ccccc1)c(=S)n2-c1ccccc1 | > 100 | > 100 | 65.1 | 59.5 | 89.7 | 66.8 | 76.3 | > 100 | 42 | > 100 | > 100 | 60.6 | > 100 | 75.8 | > 100 | 40.4 | 46.2 | > 100 | 
10 | COn1oc(=O)c2ccccc21 | > 100 | > 100 | > 100 | > 100 | > 100 | > 100 | > 100 | > 100 | > 100 | > 100 | > 100 | > 100 |  | > 100 | > 100 | > 100 | > 100 | > 100 | > 100
11 | N#Cc1ccc(OCCSCCCCCCCCCCSCCOc2ccc(C#N)cc2)cc1 | > 100 |  | > 100 | > 100 | > 100 | > 100 | > 100 |  | > 100 | > 100 | > 100 |  |  | > 100 | > 100 | > 100 |  | > 100 | 
12 | COC(=O)/C(=N\NC(N)=O)C(C#N)c1ccccc1 (stereo unspecified) | > 100 |  | > 100 | > 100 | > 100 | > 100 | > 100 |  | > 100 | > 100 | > 100 | > 100 |  | > 100 | > 100 | > 100 |  | > 100 | 
13 | c1cc(C2=NCCO2)c2ccsc2c1 | > 100 | > 100 | > 100 | > 100 | > 100 | > 100 | > 100 | > 100 | > 100 | > 100 | > 100 | > 100 | > 100 | > 100 | > 100 | > 100 | > 100 | > 100 | 
14 | CN(CCNC(=O)c1nn(-c2ccc(Cl)cc2Cl)c2c1Cc1ccccc1-2)CCNC(=O)c1nn(-c2ccc(Cl)cc2Cl)c2c1Cc1ccccc1-2 | 29.7 | > 61.9 | > 100 | 5.97 | > 100 |  | 17.4 | > 100 | 4.54 | 4.97 | 97.9 | > 100 |  | 7.27 | 4.72 | 3.48 | 2.43 | 4.01 | 38.2
15 | C/C=C\C(CC(=O)NCCC1CN(C(=O)OCc2ccccc2)c2ccccc21)CC(=O)OC (stereo unspecified) | > 100 | > 100 | > 100 | > 100 | > 100 |  | > 100 | > 100 | > 100 | > 100 | > 100 | > 100 |  | > 100 | > 100 | > 100 | > 100 | > 100 | > 100
16 | NNC(=O)CC(=O)Nc1ccc(S(=O)(=O)c2ccc(NC(=O)CC(=O)NN)cc2)cc1 | > 100 | > 100 | > 100 | > 100 | > 100 | > 100 | > 100 | > 100 | > 100 | > 100 | > 100 | > 100 |  | > 100 | > 100 | > 100 | > 100 | > 100 | > 100
17 | Cc1c(C(=O)Nc2ccccc2)nnn1-c1ccnc2cc(C(F)(F)F)ccc12 | > 100 | > 100 | > 100 | > 100 | > 100 | > 100 | > 100 | > 100 | > 100 | > 100 | > 100 | > 100 |  | > 100 | > 100 | > 100 | > 100 | > 100 | > 100
18 | COc1ccc(N/N=C/C2=CC(C)(C)C(C#N)(C#N)C(O)=C2C#N)cc1 | > 100 | > 100 | > 100 | > 100 | > 100 | > 100 | > 100 | > 100 | > 100 | > 100 |  | > 100 | 82.3 | > 100 | > 100 | > 100 | > 100 | > 100 | 
19 | O=C(CC1(O)C(=O)Nc2ccc([N+](=O)[O-])cc21)c1ccncc1 (stereo unspecified) | > 100 |  | > 100 | > 100 | > 100 | > 100 | 65 |  | 64.4 | > 100 | > 100 | > 100 |  | 66.1 | 32.9 | > 100 |  | > 100 | 
20 | O=C(c1ccccc1)N(CCCCNC(=O)C(F)(F)F)CCCNC(=O)C(F)(F)F | > 100 | > 100 | > 100 | > 100 | > 100 | > 100 |  |  | > 100 | > 100 | > 100 | > 100 | > 100 | > 100 | > 100 | > 100 | > 100 | > 100 | > 100
21 | Cc1cn(C2CC(N=[N+]=[N-])C(CO)O2)c(=O)n(CCCCBr)c1=O (stereo unspecified) | > 100 | > 100 | > 100 | > 100 | > 100 | > 100 | > 100 | > 100 | > 100 | > 100 | > 100 | > 100 |  | 44.6 | > 100 | > 100 | > 100 | > 100 | > 100
22 | COC(=O)CCC(=O)c1ccc2c(c1)CC1(C2)Cc2ccc(C(=O)CCC(=O)OC)cc2C1 | > 100 |  | > 100 | > 100 | > 100 |  | > 100 | > 100 | > 100 |  | > 100 |  | 88.5 | > 100 | > 100 | > 100 | > 100 |  | 
